In patent publication US8952024B2, “Herbicidal pyrimidone derivatives” (E I du Pont de Nemours and Company, priority 2009, dated 2015):

Columns and labels:
Type in all cases: in vivo
[1] = system: pigweed (Amaranthus retroflexus); assay: Test A pre-/postemergence plant response
Procedure, shortened: (§1)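 Seeds planted in loam soil/sand blend; test chemicals in non-phytotoxic solvent mixture with surfactant applied as directed soil spray preemergence and, concurrently, postemergence to plants 2–10 cm tall at one- to two-leaf stage. Greenhouse ~10 days; visual injury vs untreated controls, 0 (no effect) to 100 (complete control).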

[2] = system: velvetleaf (Abutilon theophrasti); assay: Test A pre-/postemergence plant response
Procedure, shortened: as §1

[3] = system: large crabgrass (Digitaria sanguinalis); assay: Test A pre-/postemergence plant response
Procedure, shortened: as §1

[4] = system: wheat (Triticum aestivum); assay: Test A pre-/postemergence plant response
Procedure, shortened: as §1

[5] = system: barnyardgrass (Echinochloa crus-galli); assay: Test A pre-/postemergence plant response
Procedure, shortened: as §1

corn (Zea mays) = assay: Test A pre-/postemergence plant response
Procedure, shortened: as §1

[6] = system: giant foxtail (Setaria faberii); assay: Test A pre-/postemergence plant response
Procedure, shortened: as §1

[7] = system: morningglory (Ipomoea spp.); assay: Test A pre-/postemergence plant response
Procedure, shortened: as §1

[8] = system: windgrass (Apera spica-venti); assay: Test B postemergence plant response; details: for Plant response rating, Windgrass: Postemergence
Procedure, shortened: (§2)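 Plants at the 1- to 4-leaf stage (2 to 18 cm tall), grown in pots of peat moss/vermiculite medium with wetting agent and starter nutrients, received postemergence applications of test chemicals. After 13 to 15 days in a greenhouse, injury was rated visually against untreated controls on a 0 (no effect) to 100 (complete control) scale.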

[9] = system: chickweed (Stellaria media); assay: Test B postemergence plant response; details: for Plant response rating, Chickweed: Postemergence
Procedure, shortened: as §2

[10] = system: canarygrass (Phalaris minor); assay: Test B postemergence plant response; details: for Plant response rating, Canarygrass: Postemergence
Procedure, shortened: as §2

rice (Oryza sativa) = assay: Test B flooded paddy test; details: for Plant response rating, Flood, Rice: 250 g ai/ha, flooded paddy test, visual rating on 0 to 100 scale (0 no effect, 100 complete control) after 13 to 15 days; for Plant response rating, Rice: Flood (flooded paddy test), 13 to 15 days; for Rice plant response rating: Flood, 31 g ai/ha, scale 0 to 100 (0 no effect, 100 complete control)
Procedure, shortened: (§3)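 Visual scores run from 0 (no effect) to 100 (complete control), assigned by comparison with controls 13 to 15 days after treatment. Test compounds went straight into water standing 3 cm above the soil, around plants at the 2-leaf stage kept in a greenhouse.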

[11] = system: ducksalad (Heteranthera limosa); assay: Test B flooded paddy test; details: for Plant response rating, Flood, Ducksalad: 250 g ai/ha, flooded paddy test, visual rating on 0 to 100 scale (0 no effect, 100 complete control) after 13 to 15 days; for Plant response rating, Ducksalad: Flood (flooded paddy test), 13 to 15 days; for Ducksalad plant response rating: Flood, 31 g ai/ha, scale 0 to 100 (0 no effect, 100 complete control)
Procedure, shortened: as §3

[12] = Postemergence, 125 g ai/ha, 0 to 100 scale where 0 is no effect and 100 is complete control
[13] = Postemergence, 500 g ai/ha, visual injury, 0 to 100 scale (0 no effect, 100 complete control), approx. ten days
[14] = Preemergence, 125 g ai/ha, 0 to 100 scale, 0 = no effect, 100 = complete control
[15] = Preemergence, 500 g ai/ha, 0 to 100 scale, 0 = no effect, 100 = complete control
[16] = 31 g ai/ha, 0 to 100 scale (0 no effect, 100 complete control)
[17] = 125 g ai/ha, scale 0 to 100 (0 no effect, 100 complete control)
[18] = 250 g ai/ha, scale 0 to 100 (0 no effect, 100 complete control), 13 to 15 days
[19] = 62 g ai/ha, scale of 0 to 100 where 0 is no effect and 100 is complete control
[20] = 125 g ai/ha, scale 0 to 100, 0 is no effect, 100 is complete control
[21] = Postemergence, 500 g ai/ha, 0 to 100 scale, 0 = no effect, 100 = complete control, approx. ten days
[22] = Preemergence, 500 g ai/ha, visual injury, 0 to 100 scale (0 no effect, 100 complete control), approx. ten days
[23] = 62 g ai/ha, postemergence, 0 is no effect, 100 is complete control, 13 to 15 days

## O=C1CCCC(O)=C1C(=O)c1cnc(-c2ccccc2)n(C2CCSCC2)c1=O [Compound 164]
[1]; [12]
  Plant response rating, Pigweed: 100
[1]; [13]
  Pigweed plant response rating: 100
[1]; [14]
  Plant response rating, Pigweed: 60
[1]; [15]
  Plant response rating, Pigweed: 100
[2]; [12]
  Plant response rating, Velvetleaf: 100
[2]; [13]
  Velvetleaf plant response rating: 100
[2]; [14]
  Plant response rating, Velvetleaf: 40
[2]; [15]
  Plant response rating, Velvetleaf: 70
[3]; [12]
  Plant response rating, Crabgrass, Large: 90
[3]; [13]
  Crabgrass, Large plant response rating: 100
[3]; [14]
  Plant response rating, Crabgrass, Large: 30
[3]; [15]
  Plant response rating, Crabgrass, Large: 90
[4]; [12]
  Plant response rating, Wheat: 0
[4]; [13]
  Wheat plant response rating: 20
[4]; [14]
  Plant response rating, Wheat: 0
[4]; [15]
  Plant response rating, Wheat: 0
[5]; [12]
  Plant response rating, Barnyardgrass: 100
[5]; [13]
  Barnyardgrass plant response rating: 100
[5]; [14]
  Plant response rating, Barnyardgrass: 10
[5]; [15]
  Plant response rating, Barnyardgrass: 80
Corn (Zea mays); [12]
  Plant response rating, Corn: 10
Corn (Zea mays); [13]
  Corn plant response rating: 50
Corn (Zea mays); [14]
  Plant response rating, Corn: 0
Corn (Zea mays); [15]
  Plant response rating, Corn: 0
[6]; [12]
  Plant response rating, Foxtail, Giant: 100
[6]; [13]
  Foxtail, Giant plant response rating: 100
[6]; [14]
  Plant response rating, Foxtail, Giant: 40
[6]; [15]
  Plant response rating, Foxtail, Giant: 70
[7]; [12]
  Plant response rating, Morningglory: 100
[7]; [13]
  Morningglory plant response rating: 100
[7]; [14]
  Plant response rating, Morningglory: 10
[7]; [15]
  Plant response rating, Morningglory: 50
[8]; [16]
  Plant response rating, Windgrass: 5
[8]; [17]
  Plant response rating, Windgrass: 75
[8]; [18]
  Plant response rating, Windgrass: 85
[9]; [16]
  Plant response rating, Chickweed: 80
[9]; [17]
  Plant response rating, Chickweed: 98
[9]; [18]
  Plant response rating, Chickweed: 100
[10]; [16]
  Plant response rating, Canarygrass: 40
[10]; [17]
  Plant response rating, Canarygrass: 90
[10]; [18]
  Plant response rating, Canarygrass: 98
Rice (Oryza sativa)
  Plant response rating, Flood, Rice: 35
  Rice plant response rating: 0
Rice (Oryza sativa); [19]
  Plant response rating, Rice: 0
Rice (Oryza sativa); [20]
  Plant response rating, Rice: 20
[11]
  Plant response rating, Flood, Ducksalad: 85
  Ducksalad plant response rating: 0
[11]; [19]
  Plant response rating, Ducksalad: 0
[11]; [20]
  Plant response rating, Ducksalad: 0

## CCCCn1c(-c2cccc(Cl)c2)ncc(C(=O)C2=C(O)CCCC2=O)c1=O [Compound 146]
[1]; [12]
  Plant response rating, Pigweed: 100
[1]; [21]
  Plant response rating, Pigweed: 100
[1]; [14]
  Plant response rating, Pigweed: 70
[1]; [22]
  Plant response rating, Pigweed: 100
[2]; [12]
  Plant response rating, Velvetleaf: 100
[2]; [21]
  Plant response rating, Velvetleaf: 100
[2]; [14]
  Plant response rating, Velvetleaf: 70
[2]; [15]
  Plant response rating, Velvetleaf: 100
[3]; [12]
  Plant response rating, Crabgrass, Large: 80
[3]; [21]
  Plant response rating, Crabgrass, Large: 90
[3]; [14]
  Plant response rating, Crabgrass, Large: 60
[3]; [22]
  Plant response rating, Crabgrass, Large: 100
[4]; [12]
  Plant response rating, Wheat: 20
[4]; [21]
  Plant response rating, Wheat: 50
[4]; [14]
  Plant response rating, Wheat: 0
[4]; [15]
  Plant response rating, Wheat: 40
[5]; [12]
  Plant response rating, Barnyardgrass: 100
[5]; [21]
  Plant response rating, Barnyardgrass: 100
[5]; [14]
  Plant response rating, Barnyardgrass: 60
[5]; [22]
  Plant response rating, Barnyardgrass: 100
Corn (Zea mays); [12]
  Plant response rating, Corn: 20
Corn (Zea mays); [21]
  Plant response rating, Corn: 30
Corn (Zea mays); [14]
  Plant response rating, Corn: 0
Corn (Zea mays); [22]
  Plant response rating, Corn: 30
[6]; [12]
  Plant response rating, Foxtail, Giant: 70
[6]; [21]
  Plant response rating, Foxtail, Giant: 90
[6]; [14]
  Plant response rating, Foxtail, Giant: 30
[6]; [22]
  Plant response rating, Foxtail, Giant: 90
[7]; [12]
  Plant response rating, Morningglory: 90
[7]; [21]
  Plant response rating, Morningglory: 90
[7]; [14]
  Plant response rating, Morningglory: 10
[8]; [23]
  Windgrass plant response rating (0 to 100 scale): 50
[8]; [16]
  Plant response rating, Windgrass: 45
[8]; [17]
  Plant response rating, Windgrass: 60
[8]; [18]
  Plant response rating, Windgrass: 60
[9]; [23]
  Chickweed plant response rating (0 to 100 scale): 95
[9]; [16]
  Plant response rating, Chickweed: 70
[9]; [17]
  Plant response rating, Chickweed: 98
[9]; [18]
  Plant response rating, Chickweed: 98
[10]; [23]
  Canarygrass plant response rating (0 to 100 scale): 0
[10]; [16]
  Plant response rating, Canarygrass: 0
[10]; [17]
  Plant response rating, Canarygrass: 5
[10]; [18]
  Plant response rating, Canarygrass: 10
Rice (Oryza sativa)
  Plant response rating, Flood, Rice: 35
  Rice plant response rating: 0
Rice (Oryza sativa); [19]
  Plant response rating, Rice: 0
Rice (Oryza sativa); [20]
  Plant response rating, Rice: 0
[11]
  Plant response rating, Flood, Ducksalad: 100
  Ducksalad plant response rating: 0
[11]; [19]
  Plant response rating, Ducksalad: 60
[11]; [20]
  Plant response rating, Ducksalad: 80
